This note sets out measurements from ChEMBL document CHEMBL4393685, “Synthesis and evaluation of pyrimidoindole analogs in umbilical cord blood ex vivo expansion” (Eur J Med Chem, 2019).

Type in all cases: functional
The nature of assay [1]: Stimulation of ex vivo expansion of human CD34+ cells assessed as CD34+/CD38- level at 0.01 to 1 uM incubated for 7 days supplemented with 50% fresh medium containing cytokines every other day by flow cytometry relative to control. For orientation: In flow cytometry, cells or beads pass a laser one at a time.
Assay [2] can be described thus: Stimulation of ex vivo expansion of human CD34+ cells assessed as CD34+CD38- level incubated for 7 days supplemented with 50% fresh medium containing cytokines every other day by flow cytometry.
Assay [3] is described as follows: Stimulation of ex vivo expansion of human CD34+ cells assessed as CD34+CD38- level at 0.01 to 1 uM incubated for 7 days supplemented with 50% fresh medium containing cytokines every other day by flow cytometry (reference value: 19.10 +/- 0.35%).
A short description of assay [4]: Ex vivo expansion of human CD34+ cells assessed as increase in CD34+ cell level after 5 to 7 days by […].
Assay [5] can be described thus: Stimulation of ex vivo expansion of human CD34+ cells assessed as CD34postive phenotypic levels after 7 days by carboxyfluorescein succinimidyl ester dye based assay.
[6] abbreviates: Homo sapiens, 168 h, read-out: EC50.

`Cn1nnc(-c2ccc3[nH]c4nc(Cc5ccccc5)nc(Nc5cccc(Br)c5)c4c3c2)n1`: the “fold change (FC)” value in assay [1] came to 1.19. Also, in assay [2], the EC50 (as a rule, the concentration that produces a half-maximal response) is on record as “Nd(Toxic)”. Further, the Activity in assay [3] is given as 22.63%.
In the same order, the values of `C#Cc1cccc(Nc2nc(Cc3ccccc3)nc3[nH]c4cc(-c5nnn(C)n5)ccc4c23)c1` are 0.89, “Nd(Toxic)” and 16.98%.
In the case of `Cn1nnc(-c2ccc3[nH]c4nc(Cc5ccccc5)nc(N[C@H]5CC[C@H](O)CC5)c4c3c2)n1`, in assay [1], the “fold change (FC)” value was 0.94. Also, in assay [2], the EC50 result is recorded as “Nd(Toxic)”. In addition, in assay [3], the Activity was found to be 17.9%.
Taken in the same sequence, the figures for `Cn1nnc(-c2ccc3[nH]c4nc(Cc5ccccc5)nc(Nc5ccccc5)c4c3c2)n1` were 0.94, “Nd(Toxic)” and 18.02%.
On to `COc1cc2c(cc1OC)CN(CCNc1nc(Cc3ccccc3)nc3[nH]c4ccc(-c5nnn(C)n5)cc4c13)CC2`, for which the “fold change (FC)” value in assay [1] was 1.27. Also, in assay [2] (setting [6]), the concentration for a half-maximal effect (EC50) is 30 nM. In addition, the Activity in assay [3] is 21.93%.
For the compound `CC(C)n1cnc2c(NCCc3ccc(O)cc3)nc(-c3csc4ccccc34)nc21`, the EC50 in assay [4] is 120 nM. Also, in assay [5], the Activity was 61%.
Take `Cn1nnc(-c2ccc3[nH]c4nc(Cc5ccccc5)nc(NCc5ccccc5)c4c3c2)n1`: the “fold change (FC)” value in assay [1] worked out at 1.25. For the same compound, in assay [2], the EC50 result is recorded as “Nd(Toxic)”. For the same compound, the Activity in assay [3] is 23.92%.
In the same order, the values of `Cn1nnc(-c2ccc3[nH]c4nc(Cc5ccccc5)nc(NCCO)c4c3c2)n1` are 0.99, “Nd(Toxic)” and 18.99%.
Turning to `Cc1cc(Cl)ccc1Nc1nc(Cc2ccccc2)nc2[nH]c3ccc(-c4nnn(C)n4)cc3c12`, the “fold change (FC)” value in assay [1] was 1.59. Also, the concentration giving a half-maximal response (EC50) in assay [2] (setting [6]) is 19.2 nM. Besides, the Activity in assay [3] was found to be 30.36%.
Consider `Cn1nnc(-c2ccc3[nH]c4nc(Cc5ccccc5)nc(NCCNC(=O)c5ccc6ccccc6n5)c4c3c2)n1`, for which the “fold change (FC)” value in assay [1] was 1.09. Besides, the half-maximal effective concentration (EC50) result in assay [2] is recorded as “Nd(Toxic)”. The Activity in assay [3] came to 20.89%.
With `Cn1nnc(-c2ccc3[nH]c4nc(Cc5ccccc5)nc(N5CCC(CO)CC5)c4c3c2)n1`, the “fold change (FC)” value in assay [1] is on record as 1.06. Further, in assay [2] (setting [6]), the EC50 was 359 nM. For the same compound, the Activity in assay [3] worked out at 20.29%.
Taken in the same sequence, the figures for `COc1ccc(CCNc2nc(Cc3ccccc3)nc3[nH]c4ccc(-c5nnn(C)n5)cc4c23)cc1OC` were 1.24, 65.2 nM and 23.63%.
In the case of `Cc1ccc(Sc2nc(Cc3ccccc3)nc3[nH]c4ccc(-c5nnn(C)n5)cc4c23)cc1`, the “fold change (FC)” value in assay [1] amounted to 1.34. In assay [2], the EC50 entry is “Nd(Toxic)”. Besides, the Activity in assay [3] worked out at 25.53%.
Regarding `CC(O)CNc1nc(Cc2ccccc2)nc2[nH]c3ccc(-c4nnn(C)n4)cc3c12` (stereo unspecified), in assay [1], the “fold change (FC)” value is 1.63. In addition, in assay [2] (setting [6]), the EC50 was found to be 167 nM. The Activity in assay [3] turned out to be 31.2%.
`CNC(=O)c1ccc(Nc2nc(Cc3ccccc3)nc3[nH]c4ccc(-c5nnn(C)n5)cc4c23)cc1`: the “fold change (FC)” value in assay [1] is 1.14. Also, the EC50 result in assay [2] is recorded as “Nd(Toxic)”. For the same compound, the Activity in assay [3] is on record as 21.83%.
Taken in the same sequence, the figures for `Cn1nnc(-c2ccc3[nH]c4nc(Cc5ccccc5)nc(Nc5ccc(F)c(Cl)c5)c4c3c2)n1` were 1.08, “Nd(Toxic)” and 20.65%.
Taken in the same sequence, the figures for `Cn1nnc(-c2ccc3[nH]c4nc(Cc5ccccc5)nc(NCCNC(=O)OC(C)(C)C)c4c3c2)n1` were 0.84, “Nd(Toxic)” and 16.11%.
`Cn1nnc(-c2ccc3[nH]c4nc(Cc5ccccc5)nc(NCCc5c[nH]c6ccccc56)c4c3c2)n1`: in assay [1], the “fold change (FC)” value stood at 1.14. For the same compound, the EC50 in assay [2] (setting [6]) came out at 27.7 nM. Also, in assay [3], the Activity turned out to be 21.72%.
Taken in the same sequence, the figures for `Cn1nnc(-c2ccc3[nH]c4nc(Cc5ccccc5)nc(NCCN(Cc5ccccn5)Cc5ccccn5)c4c3c2)n1` were 1.27, 26.2 nM and 24.23%.
